Data set [1] concerns Caco2 cells. Put plainly: Lipid transport (14C-fatty acid release) through Caco2 monolayer in transwell system. It counts as cell-based, human. As to conditions: 24 h. The method, then:
(§1) Lipid transport studies were assessed in Caco2 cells seeded in trans-wells. 1.5×10^5 cells were seeded into a 12-well cell culture insert of 1 μm pore size Trans-well and maintained in for 14 consecutive days with media change every two days. For the lipids uptake and release, the apical side of the membrane was loaded with radioactive ^14C-palmitic acid (0.2 μCi), oleic acid (1 mM), and taurocholic acid (2 mM) in DMEM high glucose 10% FBS. The basal medium contained DMEM high glucose 0.1% FBS. After 24 hours of incubation, cell lysates and the apical and basolateral medium was collected and the ^14C-palmitic acid was measured in a scintillation counter for aliquots of apical and basal medium and for cell lysate. The same protocol was used in Caco2 cells that were treated with CRT0066101 (3 and 5 μM) for 24 h (added together with the mentioned radioactive fatty acid cocktail).
In order to test the potential of PKD inhibitors to restrict lipid transport via epithelial monolayer, we employed Caco2 cells seeded into the Transwells system. Briefly, we plated 1.5×10^5 cells seeded into a 12-well cell culture inserts of 1-μm pore size Transwell and maintained in for 14 consecutive days with media change every 2 days. For the lipid uptake and release, the apical side of the membrane was loaded with radioactive 14C-palmitic acid (0.2 μCi), oleic acid (1 mM), and taurocholic acid (2 mM) in DMEM high glucose 10% FBS. The basal medium contained DMEM high glucose 0.1% FBS. After 24 h of incubation, cell lysates and the apical and basolateral medium were collected and the 14C-palmitic acid was measured in a scintillation counter for aliquots of apical and basal medium and for cell lysate. To assess the efficiency of different PKD inhibitors, Caco2 cells were treated with either CRT0066101 (5 μM), CID2011756 (20 μM), CID755673 (20 μM), 1-NM-PP1 (20 μM), or control solvent solution (DMSO) for 24 h (added together with the mentioned radioactive FA cocktail).

The subject of data set [2] is Caco2 cells deficient in PKD2. Kind of data set: 14C-fatty acid basolateral release in Caco2 cells expressing shPkd2 in transwell system. Type of data set: cell-based, human. As to conditions: 24 h, FIG. 6B. How it is done:
Caco2 cells were cultured in Dulbecco's modified eagle's medium 4.5 g/L glucose (DMEM), 10% fetal bovine serum (FBS), non-essential amino acids (NEAA), 1 mM sodium pyruvate, and 40 μg/mL gentamycin. For the generation of shRNA cell lines, Pkd2 shRNA lentiviral sequences or scramble (non-targeting) were first cloned into the pLKO.1-puro vector then packed into viral particles in packaging cells (HEK293T) using 3rd generation packaging vectors. Caco2 cells were spinfected with viral supernatant then selected with puromycin and the deletion efficiency was further assessed by western blot.
as §1, with “The same protocol was used in Caco2 cells that were treated with CRT0066101 (3 and 5 μM) for 24 h (added together with the mentioned radioactive fatty acid cocktail).” left out

Data set [3] concerns phosphorylated PKD2. As to conditions: oral 10 mg/kg once a day, HFD. How it is done:
PKD inhibitor CRT0066101 was dissolved in water (10 mg/kg) and administered orally to the mice by daily gavage, while the control mice were gavaged with water. Mice were maintained on the specified diets and had ab libitum access to food and water. C57BL/6 mice were administered CRT inhibitor treatment at 4-weeks of age, while for the rescue experiment, inhibitor was given under the same circumstances but treatment started only after 7 weeks of HFD feeding. Intestinal barrier permeability was further assessed 1 hour after oral gavage of FITC-Dextran 4.
Proteins from tissues and cell culture were extracted with RIPA buffer supplemented with phosphatase and protease inhibitor (PPI, Thermo Fisher Scientific). Protein concentration was measured by Pierce™ BCA Protein Assay Kit (Thermo Fisher Scientific) following the manufacturer's protocol. Reduced protein extracts were separated on 10% SDS-PAGE gels by electrophoresis and transferred to PVDF membranes under wet transfer. Membranes were blocked in 5% (w/v) milk in TBS-T before overnight probing with indicated primary antibodies at 4° C., followed by TBS-T washes and incubation with corresponding secondary antibody.

The subject of data set [4] is LDLR-/- mice. Kind of data set: Atheroma formation in high cholesterol diet-fed LDLR-/- mice. Type of data set: in vivo, mouse. As to conditions: oral 10 mg/kg a day, 7th to 17th week of high cholesterol diet, vs solvent. The text has this:
To assess the impact of PKD2 on cholesterol levels as well as on atheroma formation, we utilized a mouse genetic model of atheroma formation and mice carrying inactivatory mutation in the sequence encoding PKD2 (Matthews et al, 2010). Mice deficient for Low-density lipoprotein receptor (LDLR), develop hyperlipidemia (elevated levels of cholesterol) and deposit a significant amount of atherosclerotic plaques in the vessels especially when fed with a high cholesterol diet (containing 1.25% of the cholesterol in the food) (Ishibashi et al, 1993). We crossed mice deficient for LDLR (LDLR−/−) and mice carrying inactivatory mutation of PKD2 (PKD^ki/ki) to generate double mutant mice (LDLR−/− PKD^ki/ki) and corresponding control animals, LDLR−/−. These animals were fed for 18 weeks with high cholesterol diet. […] The relative plaque area was also quantified.
To test if inhibition of PKD by CRT0066101 compound is also sufficient to reduce atherosclerotic plaque formation, we also utilized high cholesterol diet-fed LDLR−/− mice as a model. […] After the 17th week of the experiment, mice were sacrificed and lipid levels in the blood, as well as the amount of atherosclerotic plaques, were assessed as described for the genetic model above.

For `CC[C@@H](N)CNc1ccnc(-c2cc(-c3cnn(C)c3)ccc2O)n1` [CRT0066101], the “lipid transport through the Caco2 monolayer” value in data set [1] (5 μM, vs DMSO, FIG. 8) is “significant reduction in lipid transport”. The “TG secretion (basolateral release of 14C-labeled fatty acids)” value is recorded as “reduces TG secretion in a dose dependent manner” in data set [1] (Caco2 transwell, 3 and 5 μM, FIG. 6A); “did not reduce TG secretion” in data set [2]. In data set [3], the “PKD activity in liver or adipose tissue” value was “no similar decrease was observed”. The “intestinal PKD activity (phosphorylated PKD2 in jejunum)” value in data set [3] (13 weeks, FIG. 6C) is given as “attenuated”. For the same molecule, in data set [4] (FIG. 10A), the blood cholesterol levels result is given as “reduction in cholesterol levels”. The “size of atherosclerotic plaques (relative area in aorta, OilRedO)” value in data set [4] (FIG. 10B-C) is given as “smaller size of atherosclerotic plaques”.

Source of the values: patent US20240082260A1, “INHIBITOR OF PROTEIN KINASE D FOR USE IN PREVENTION OR TREATMENT OF HYPERLIPIDEMIA” (priority 2021, published 2024).
